Experimental data published in ChEMBL document CHEMBL1201862, “PubChem BioAssay data set” (2004).
Activity calls are given as the source filed them.

Experiments:
HEK293 [1] = experiment: HEK293T cell viability loss, resazurin readout – resazurin fluorescence, cytotoxicity control for NF-kB activator project, SAR follow-up (AID 493251); format: functional, cell-based; conditions: Homo sapiens
Jurkat = experiment: SAR Analysis of small molecule inhibitors of […] specific antigen receptor-induced NF-kB activation in a Jurkat cell line using a luminescence assay - Set 3. [Related pubchem assays (depositor defined):AID435022, AID435025, AID465]; format: functional, cell-based; conditions: Homo sapiens
HEK293 [2] = experiment: SAR Analysis of small molecule inhibitors of B-cell specific antigen receptor-induced NF-kB activation in a HEK-293T cell line using a luminescence assay - Set 2. [Related pubchem assays (depositor defined):AID435022, AID435025, AID489021]; format: functional, cell-based; conditions: Homo sapiens
[3] = target: T1, Carboxy-terminal domain RNA polymerase II polypeptide A small phosphatase 1 (Homo sapiens, UniProt Q9GZU7); experiment: CTDSP1 inhibitors, concentration-response, biochemical, absorbance readout, ultra-high-throughput screen actives (AID 540297); format: functional
T1 sequence (Q9GZU7 whole entry): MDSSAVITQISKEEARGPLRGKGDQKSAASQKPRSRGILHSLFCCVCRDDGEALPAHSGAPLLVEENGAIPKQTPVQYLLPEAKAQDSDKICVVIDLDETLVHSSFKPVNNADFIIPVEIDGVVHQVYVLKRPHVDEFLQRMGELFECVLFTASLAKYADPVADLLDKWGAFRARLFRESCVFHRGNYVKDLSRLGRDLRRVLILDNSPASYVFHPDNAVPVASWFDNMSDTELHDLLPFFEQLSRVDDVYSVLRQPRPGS

SUMO-activating enzyme [4] = target: T2, SUMO-activating enzyme (Homo sapiens, UniProt Q9UBT2); experiment: blockers of UBC9-mediated SUMO conjugation – biochemical, AlphaScreen, SUMOylation inhibitor project, confirmation (AID 2018); format: functional
[5] = target: T3, Tyrosine-protein phosphatase non-receptor type 7 (Homo sapiens, UniProt P35236); experiment: inhibition of hematopoietic tyrosine phosphatase HePTP – biochemical, set 2, SAR follow-up (AID 449736); format: functional
T3 sequence (P35236 whole entry): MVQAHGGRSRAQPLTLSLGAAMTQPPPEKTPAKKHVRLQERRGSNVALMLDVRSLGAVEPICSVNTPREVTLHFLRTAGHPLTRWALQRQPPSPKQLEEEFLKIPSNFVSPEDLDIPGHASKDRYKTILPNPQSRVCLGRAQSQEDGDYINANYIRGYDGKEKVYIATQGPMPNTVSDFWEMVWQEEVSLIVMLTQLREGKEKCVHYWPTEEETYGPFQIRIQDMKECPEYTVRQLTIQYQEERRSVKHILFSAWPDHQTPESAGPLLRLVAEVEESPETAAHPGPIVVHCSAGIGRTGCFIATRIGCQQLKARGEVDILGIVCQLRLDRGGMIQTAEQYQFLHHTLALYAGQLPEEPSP

[6] = target: T4, Tyrosine-protein phosphatase non-receptor type 22 (Homo sapiens, UniProt Q9Y2R2); experiment: SAR LYP1 Fluorescent Assay using OMFP substrate for In Vitro dose response studies - Set 3. [Related pubchem assays (depositor defined):AID1779, AID1784, AID2140, AID2686]; format: functional
T4 sequence (Q9Y2R2 whole entry): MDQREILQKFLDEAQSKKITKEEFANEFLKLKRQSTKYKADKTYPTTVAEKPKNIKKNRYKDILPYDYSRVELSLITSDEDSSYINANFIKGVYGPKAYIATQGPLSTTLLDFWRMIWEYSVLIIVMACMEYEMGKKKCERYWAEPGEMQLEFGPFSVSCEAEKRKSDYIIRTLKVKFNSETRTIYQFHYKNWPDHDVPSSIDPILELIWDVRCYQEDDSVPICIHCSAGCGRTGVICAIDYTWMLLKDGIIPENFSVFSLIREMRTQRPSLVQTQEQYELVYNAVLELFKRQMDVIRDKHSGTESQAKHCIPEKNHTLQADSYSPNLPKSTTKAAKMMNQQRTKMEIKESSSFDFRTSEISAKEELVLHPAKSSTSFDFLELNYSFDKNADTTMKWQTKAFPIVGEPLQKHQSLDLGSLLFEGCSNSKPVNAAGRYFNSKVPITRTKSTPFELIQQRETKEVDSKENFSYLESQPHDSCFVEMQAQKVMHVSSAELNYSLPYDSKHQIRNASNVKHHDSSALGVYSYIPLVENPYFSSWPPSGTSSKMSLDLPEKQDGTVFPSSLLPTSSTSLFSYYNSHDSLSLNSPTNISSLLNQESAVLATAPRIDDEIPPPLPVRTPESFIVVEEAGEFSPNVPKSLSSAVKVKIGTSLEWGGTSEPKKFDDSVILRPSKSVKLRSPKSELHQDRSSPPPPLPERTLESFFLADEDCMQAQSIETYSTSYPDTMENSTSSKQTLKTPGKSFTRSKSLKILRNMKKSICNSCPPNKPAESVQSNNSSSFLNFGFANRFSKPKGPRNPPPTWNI

[7] = target: Dual specificity protein phosphatase 3 (Homo sapiens, UniProt P51452); experiment: SAR VHR1 Fluorescent Assay for In Vitro dose response studies Set 2. [Related pubchem assays (depositor defined):AID1654, AID1661, AID1878]; format: functional
[8] = target: T5, Tyrosine-protein phosphatase non-receptor type 12 (Homo sapiens, UniProt Q05209); experiment: SAR Selectivity Analysis of small molecule inhibitors of PEST using pCAP in a fluorescence assay. [Related pubchem assays (depositor defined):AID1779, AID1784, AID2135]; format: functional
T5 sequence (Q05209 whole entry): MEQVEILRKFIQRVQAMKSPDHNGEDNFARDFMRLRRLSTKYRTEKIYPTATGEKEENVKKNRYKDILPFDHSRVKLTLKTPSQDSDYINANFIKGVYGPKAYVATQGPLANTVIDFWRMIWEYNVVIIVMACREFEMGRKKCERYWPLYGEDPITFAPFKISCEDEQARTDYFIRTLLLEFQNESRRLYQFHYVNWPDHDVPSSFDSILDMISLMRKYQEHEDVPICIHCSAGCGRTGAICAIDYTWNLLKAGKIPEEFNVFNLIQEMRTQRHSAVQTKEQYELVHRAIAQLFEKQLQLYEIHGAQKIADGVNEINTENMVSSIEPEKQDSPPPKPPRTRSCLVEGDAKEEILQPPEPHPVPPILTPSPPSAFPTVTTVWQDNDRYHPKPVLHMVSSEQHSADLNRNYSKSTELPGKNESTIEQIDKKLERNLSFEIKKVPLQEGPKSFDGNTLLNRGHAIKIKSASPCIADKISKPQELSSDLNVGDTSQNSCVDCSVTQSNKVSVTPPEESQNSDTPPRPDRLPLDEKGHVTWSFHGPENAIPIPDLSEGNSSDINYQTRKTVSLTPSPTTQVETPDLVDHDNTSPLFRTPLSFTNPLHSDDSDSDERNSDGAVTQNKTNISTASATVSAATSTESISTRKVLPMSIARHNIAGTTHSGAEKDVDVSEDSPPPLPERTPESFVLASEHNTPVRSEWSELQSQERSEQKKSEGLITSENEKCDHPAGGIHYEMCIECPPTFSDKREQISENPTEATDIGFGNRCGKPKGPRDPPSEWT

[9] = target: Arf-GAP with SH3 domain, ANK repeat and PH domain-containing protein 1 (Homo sapiens, UniProt Q9ULH1); format: functional;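 note: biochemical fluorescence polarization dose–response screen measuring inhibition of ASAP1; ASAP1 GAP domain stimulating GTP hydrolysis by truncated human ARF1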
SUMO-activating enzyme [10] = target: T2, SUMO-activating enzyme; experiment: blockers of SAE1/SAE2–UBC9 SUMO transfer – biochemical, HTRF, uHTS, primary screen (AID 2006); format: protein-complex assay
[11] = target: Dual specificity protein phosphatase 6 (Rattus norvegicus, UniProt Q64346); format: functional;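 note: confirmatory in vitro dose-response testing of MKP-3 inhibition; recombinant His-tagged MKP-3 made in E. coli BL21 with OMFP substrate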
[12] = target: T4, Tyrosine-protein phosphatase non-receptor type 22; experiment: inhibition of lymphoid tyrosine phosphatase LYP – biochemical, pCAP fluorogenic substrate, fluorescence, set 3, SAR follow-up (AID 449727); format: functional
[13] = target: T3, Tyrosine-protein phosphatase non-receptor type 7; experiment: redox-active compounds inhibiting HePTP phosphatase – biochemical, fluorescence, mechanism study (AID 2068); format: functional
[14] = target: T6, Small ubiquitin-related modifier 1 (Homo sapiens, UniProt P63165); experiment: SUMO1 protein-protein binding blockers, potency – biochemical, FRET, dose response (AID 624383); format: functional; conditions: read-out: IC50_Mean
[15] = target: T6, Small ubiquitin-related modifier 1; experiment: SUMO1 protein interaction blockers, potency – biochemical, fluorescence polarization, uHTS hits, dose response (AID 624382); format: functional; conditions: read-out: IC50_Mean
[16] = target: T7, Apoptotic protease-activating factor 1 (Homo sapiens, UniProt O14727); experiment: activation of Apaf-1 mediated apoptosis – fluorescent, uHTS hits, dose response (AID 588554); format: functional
T7 sequence (O14727 whole entry): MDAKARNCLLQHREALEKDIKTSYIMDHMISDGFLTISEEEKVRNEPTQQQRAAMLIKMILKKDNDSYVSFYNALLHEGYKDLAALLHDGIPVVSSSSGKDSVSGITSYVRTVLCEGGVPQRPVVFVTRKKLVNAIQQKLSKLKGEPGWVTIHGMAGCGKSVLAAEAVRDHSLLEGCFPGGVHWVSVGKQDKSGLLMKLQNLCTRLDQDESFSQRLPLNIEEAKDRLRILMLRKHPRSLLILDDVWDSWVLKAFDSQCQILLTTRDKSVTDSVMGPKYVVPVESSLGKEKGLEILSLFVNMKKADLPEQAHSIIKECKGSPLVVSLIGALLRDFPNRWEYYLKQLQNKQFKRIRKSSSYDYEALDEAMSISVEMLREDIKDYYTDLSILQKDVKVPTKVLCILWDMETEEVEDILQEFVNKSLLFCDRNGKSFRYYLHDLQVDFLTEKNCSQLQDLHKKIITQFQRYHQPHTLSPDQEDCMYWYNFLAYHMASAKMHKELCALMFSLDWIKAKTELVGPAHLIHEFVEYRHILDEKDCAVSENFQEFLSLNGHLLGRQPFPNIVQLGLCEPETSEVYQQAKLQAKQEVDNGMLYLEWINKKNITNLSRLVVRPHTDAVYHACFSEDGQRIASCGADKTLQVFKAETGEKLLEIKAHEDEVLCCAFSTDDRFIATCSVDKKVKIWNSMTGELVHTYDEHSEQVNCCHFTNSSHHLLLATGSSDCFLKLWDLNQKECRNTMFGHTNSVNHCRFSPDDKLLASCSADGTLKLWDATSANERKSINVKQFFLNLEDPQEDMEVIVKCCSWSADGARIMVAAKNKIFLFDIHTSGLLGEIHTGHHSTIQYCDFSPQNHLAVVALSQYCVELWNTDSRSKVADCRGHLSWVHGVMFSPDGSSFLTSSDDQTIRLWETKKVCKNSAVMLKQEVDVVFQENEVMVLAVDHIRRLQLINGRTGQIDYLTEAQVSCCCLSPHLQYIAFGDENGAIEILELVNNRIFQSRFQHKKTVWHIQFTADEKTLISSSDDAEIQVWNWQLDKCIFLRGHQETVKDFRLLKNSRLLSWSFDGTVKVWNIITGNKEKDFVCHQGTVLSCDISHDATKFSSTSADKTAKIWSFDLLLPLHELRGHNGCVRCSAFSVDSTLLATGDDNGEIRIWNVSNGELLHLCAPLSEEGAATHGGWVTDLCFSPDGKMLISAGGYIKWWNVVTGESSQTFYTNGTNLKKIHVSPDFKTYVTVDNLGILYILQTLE

[17] = target: Beta-adrenergic receptor kinase 1 (Homo sapiens, UniProt P25098); experiment: blockers of aptamer binding to GRK2 – biochemical, flow cytometry beads, FAM-aptamer, powder set 1, dose response (AID 588720)
Chain of Beta-adrenergic receptor kinase 1 (P25098 whole entry): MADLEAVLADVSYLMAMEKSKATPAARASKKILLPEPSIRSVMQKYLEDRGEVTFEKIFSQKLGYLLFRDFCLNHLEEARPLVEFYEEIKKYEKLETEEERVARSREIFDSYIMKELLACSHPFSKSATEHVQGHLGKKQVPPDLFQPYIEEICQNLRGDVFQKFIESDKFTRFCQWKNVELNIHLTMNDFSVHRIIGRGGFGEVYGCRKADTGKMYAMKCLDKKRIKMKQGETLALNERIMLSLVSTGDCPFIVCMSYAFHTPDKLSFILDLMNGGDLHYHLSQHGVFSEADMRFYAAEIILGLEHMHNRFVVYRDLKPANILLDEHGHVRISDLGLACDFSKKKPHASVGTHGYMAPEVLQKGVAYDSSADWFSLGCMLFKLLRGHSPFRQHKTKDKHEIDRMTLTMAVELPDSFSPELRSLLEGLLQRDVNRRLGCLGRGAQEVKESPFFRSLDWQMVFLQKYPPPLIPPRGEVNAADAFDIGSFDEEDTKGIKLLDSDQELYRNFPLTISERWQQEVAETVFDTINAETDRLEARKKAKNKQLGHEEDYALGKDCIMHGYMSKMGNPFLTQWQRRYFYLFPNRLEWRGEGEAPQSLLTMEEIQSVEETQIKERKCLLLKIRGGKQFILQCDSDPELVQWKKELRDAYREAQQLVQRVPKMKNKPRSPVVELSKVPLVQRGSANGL

T2 sequence (Q9UBE0 whole entry): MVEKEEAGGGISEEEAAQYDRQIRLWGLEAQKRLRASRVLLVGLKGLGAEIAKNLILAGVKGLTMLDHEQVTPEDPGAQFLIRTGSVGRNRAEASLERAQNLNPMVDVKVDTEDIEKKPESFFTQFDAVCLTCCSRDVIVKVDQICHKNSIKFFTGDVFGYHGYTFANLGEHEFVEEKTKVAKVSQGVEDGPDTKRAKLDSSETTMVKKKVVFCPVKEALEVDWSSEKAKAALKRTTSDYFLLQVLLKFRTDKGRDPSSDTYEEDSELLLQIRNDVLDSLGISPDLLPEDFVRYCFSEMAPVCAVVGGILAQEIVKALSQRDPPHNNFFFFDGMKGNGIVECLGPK
T2 sequence (Q9UBT2 whole entry): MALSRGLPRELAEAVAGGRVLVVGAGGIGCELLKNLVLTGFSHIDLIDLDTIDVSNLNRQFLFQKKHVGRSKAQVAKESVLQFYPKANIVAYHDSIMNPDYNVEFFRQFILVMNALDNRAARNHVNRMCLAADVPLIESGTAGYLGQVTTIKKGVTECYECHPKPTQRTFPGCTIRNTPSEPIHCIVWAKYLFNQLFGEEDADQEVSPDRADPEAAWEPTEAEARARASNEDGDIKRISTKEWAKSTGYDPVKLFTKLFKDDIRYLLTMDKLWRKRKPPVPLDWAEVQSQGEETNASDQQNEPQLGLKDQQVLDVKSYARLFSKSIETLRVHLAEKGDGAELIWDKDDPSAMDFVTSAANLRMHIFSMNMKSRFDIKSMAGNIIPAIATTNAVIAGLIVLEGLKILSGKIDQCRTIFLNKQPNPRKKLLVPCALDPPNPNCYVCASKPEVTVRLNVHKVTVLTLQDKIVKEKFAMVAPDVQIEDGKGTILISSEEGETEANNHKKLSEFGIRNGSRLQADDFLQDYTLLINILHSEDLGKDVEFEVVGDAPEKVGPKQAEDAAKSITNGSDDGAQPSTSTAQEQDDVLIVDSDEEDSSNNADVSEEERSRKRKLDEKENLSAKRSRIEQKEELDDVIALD
T6 sequence (P63165 whole entry): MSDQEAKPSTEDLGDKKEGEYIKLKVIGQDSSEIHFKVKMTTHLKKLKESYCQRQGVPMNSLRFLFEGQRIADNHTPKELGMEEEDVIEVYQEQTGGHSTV
Chain of Arf-GAP with SH3 domain, ANK repeat and PH domain-containing protein 1 (Q9ULH1 whole entry, the tested form may be a part): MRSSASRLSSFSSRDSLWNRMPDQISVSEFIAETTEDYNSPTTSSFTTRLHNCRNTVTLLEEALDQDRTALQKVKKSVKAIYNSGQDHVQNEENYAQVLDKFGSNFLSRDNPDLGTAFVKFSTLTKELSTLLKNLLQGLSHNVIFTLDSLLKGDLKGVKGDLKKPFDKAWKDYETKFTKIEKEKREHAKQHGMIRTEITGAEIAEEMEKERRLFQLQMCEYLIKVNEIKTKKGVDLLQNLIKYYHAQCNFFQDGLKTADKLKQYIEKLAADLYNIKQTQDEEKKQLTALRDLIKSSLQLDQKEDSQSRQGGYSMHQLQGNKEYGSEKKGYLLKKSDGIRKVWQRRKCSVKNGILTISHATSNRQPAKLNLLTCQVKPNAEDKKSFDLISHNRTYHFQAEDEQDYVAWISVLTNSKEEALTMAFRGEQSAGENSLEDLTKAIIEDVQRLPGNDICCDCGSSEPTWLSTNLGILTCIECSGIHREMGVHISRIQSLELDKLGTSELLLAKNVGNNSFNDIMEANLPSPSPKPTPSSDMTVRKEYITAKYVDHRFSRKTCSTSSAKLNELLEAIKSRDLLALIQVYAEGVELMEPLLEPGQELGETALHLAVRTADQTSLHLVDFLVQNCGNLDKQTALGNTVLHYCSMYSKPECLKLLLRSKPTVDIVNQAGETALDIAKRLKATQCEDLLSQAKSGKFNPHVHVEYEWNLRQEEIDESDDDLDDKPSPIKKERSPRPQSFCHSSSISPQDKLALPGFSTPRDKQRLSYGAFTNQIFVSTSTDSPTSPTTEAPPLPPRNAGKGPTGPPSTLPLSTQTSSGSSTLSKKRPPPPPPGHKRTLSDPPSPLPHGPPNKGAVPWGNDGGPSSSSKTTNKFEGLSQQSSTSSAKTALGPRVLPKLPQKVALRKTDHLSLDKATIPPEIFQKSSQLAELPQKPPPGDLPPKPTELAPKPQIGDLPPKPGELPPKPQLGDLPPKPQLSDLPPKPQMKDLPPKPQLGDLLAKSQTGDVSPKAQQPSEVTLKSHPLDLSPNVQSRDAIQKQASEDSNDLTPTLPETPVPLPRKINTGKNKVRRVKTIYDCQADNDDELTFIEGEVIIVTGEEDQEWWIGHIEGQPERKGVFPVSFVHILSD
Chain of Dual specificity protein phosphatase 6 (Q64346 whole entry): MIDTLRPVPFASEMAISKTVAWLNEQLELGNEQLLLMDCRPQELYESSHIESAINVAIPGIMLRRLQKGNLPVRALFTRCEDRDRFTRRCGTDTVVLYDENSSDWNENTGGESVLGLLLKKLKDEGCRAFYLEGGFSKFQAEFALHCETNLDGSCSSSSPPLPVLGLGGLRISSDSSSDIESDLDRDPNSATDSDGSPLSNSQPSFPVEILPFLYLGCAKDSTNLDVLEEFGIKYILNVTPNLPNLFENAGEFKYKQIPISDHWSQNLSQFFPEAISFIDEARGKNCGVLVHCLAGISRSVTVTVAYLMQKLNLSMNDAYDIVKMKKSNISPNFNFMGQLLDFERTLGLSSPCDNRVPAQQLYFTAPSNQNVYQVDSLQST
Chain of Dual specificity protein phosphatase 3 (P51452 whole entry): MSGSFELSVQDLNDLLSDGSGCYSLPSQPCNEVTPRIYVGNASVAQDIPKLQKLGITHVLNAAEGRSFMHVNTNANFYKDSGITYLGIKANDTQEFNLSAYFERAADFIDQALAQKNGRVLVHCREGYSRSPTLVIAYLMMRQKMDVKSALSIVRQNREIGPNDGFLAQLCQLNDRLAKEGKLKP

| Compound | IC50 (HEK293 [1]) | IC50 (Jurkat) | IC50 (HEK293 [2]) | IC50 [3] | IC50 (SUMO-activating enzyme [4]) | IC50 [5] | IC50 [6] | IC50 [7] | IC50 [8] | IC50 [9] | IC50 (SUMO-activating enzyme [10]) | IC50 [11] | IC50 [12] | IC50 [13] | IC50 [14] | IC50 [15] | EC50 [16] | EC50 [17] |
| --- | --- | --- | --- | --- | --- | --- | --- | --- | --- | --- | --- | --- | --- | --- | --- | --- | --- | --- |
| CCOc1ccc(-c2noc(CCC(=O)NC)n2)cc1 | > 80 µM (inactive) | > 80 µM (inactive) | > 80 µM (inactive) |  |  |  |  |  |  |  |  |  |  |  |  |  |  |  |
| Cc1ccc(NC(=O)CN2C(=O)S/C(=C\c3cc(Cl)c(OCC(=O)O)c(Cl)c3)C2=O)cc1 |  |  |  | 2.5 µM (active) | 8.11 µM (active) | 0.596 µM (active) | 3.95 µM (active) | 3.55 µM (active) | 2.79 µM (active) | 6.61 µM (active) | 13.5 µM (active) | 17.8 µM (active) | 4.09 µM (active) | 0.819 µM (active) |  |  |  |  |
| CCOc1ccccc1NC(=O)CCS(=O)(=O)c1ccc(Br)cc1 |  |  |  | 4.09 µM (active) |  |  |  |  |  |  |  |  |  |  | 6.76 µM (active) | > 66.6 µM (inactive) | 11.6 µM (active) | 0.337 µM (active) |
